Test results from ChEMBL document CHEMBL1201861, “Genomics of Drug Sensitity in Cancer screening data, Wellcome Trust Sanger Institute”.

system: BPH-1; experiment: cells; assay type: functional, cell-based, Homo sapiens; conditions: Homo sapiens, BPH-1;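 further: cell viability assay measuring growth inhibition of human BPH-1 cells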
Description: SANGER: Inhibition of human BPH-1 cell growth in a cell viability assay.

Row | IC50 [nM] | Structure (SMILES)
1 | 286 | CC(C)c1ccccc1Cc1cc(C(=O)Nc2ccc(S(=O)(=O)c3ccccc3C(C)(C)C)cc2)c(O)c(O)c1O

system: IGR-1; experiment: cells; assay type: functional, cell-based, Homo sapiens; conditions: Homo sapiens, IGR-1;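 further: growth inhibition of human IGR-1 cells, read out with a cell viability assay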
Description: SANGER: Inhibition of human IGR-1 cell growth in a cell viability assay.

Row | IC50 [nM] | Structure (SMILES)
2 | 301 | CC(C)c1ccccc1Cc1cc(C(=O)Nc2ccc(S(=O)(=O)c3ccccc3C(C)(C)C)cc2)c(O)c(O)c1O

system: NCI-H2170; experiment: cells; assay type: functional, cell-based, Homo sapiens; conditions: Homo sapiens, NCI-H2170;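 further: cell viability assay measuring growth inhibition of human NCI-H2170 cancer cells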
Description: SANGER: Inhibition of human NCI-H2170 cell growth in a cell viability assay.

Row | IC50 [nM] | Structure (SMILES)
3 | 1000 | CC(C)c1ccccc1Cc1cc(C(=O)Nc2ccc(S(=O)(=O)c3ccccc3C(C)(C)C)cc2)c(O)c(O)c1O

system: BHT-101; experiment: cells; assay type: functional, cell-based, Homo sapiens; conditions: Homo sapiens, BHT-101
Description: SANGER: Inhibition of human BHT-101 cell growth in a cell viability assay.

Row | IC50 [nM] | Structure (SMILES)
4 | 21.8 | CC(C)c1ccccc1Cc1cc(C(=O)Nc2ccc(S(=O)(=O)c3ccccc3C(C)(C)C)cc2)c(O)c(O)c1O

system: SW1417; experiment: cells; assay type: functional, cell-based, Homo sapiens; conditions: Homo sapiens, SW1417;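 further: growth inhibition of human SW1417 cells, read out with a cell viability assay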
Description: SANGER: Inhibition of human SW1417 cell growth in a cell viability assay.

Row | IC50 [nM] | Structure (SMILES)
5 | 1910 | CC(C)c1ccccc1Cc1cc(C(=O)Nc2ccc(S(=O)(=O)c3ccccc3C(C)(C)C)cc2)c(O)c(O)c1O

system: SW-620; experiment: cells; assay type: functional, cell-based, Homo sapiens; conditions: Homo sapiens, SW-620;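 further: growth inhibition of human SW-620 cells, measured by a cell viability assay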
Description: SANGER: Inhibition of human SW620 cell growth in a cell viability assay.

Row | IC50 [nM] | Structure (SMILES)
6 | 961 | CC(C)c1ccccc1Cc1cc(C(=O)Nc2ccc(S(=O)(=O)c3ccccc3C(C)(C)C)cc2)c(O)c(O)c1O

system: SCC-4; experiment: cells; assay type: functional, cell-based, Homo sapiens; conditions: Homo sapiens, SCC-4;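 further: growth inhibition of human SCC-4 cells, read out as cell viability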
Description: SANGER: Inhibition of human SCC-4 cell growth in a cell viability assay.

Row | IC50 [nM] | Structure (SMILES)
7 | 1300 | CC(C)c1ccccc1Cc1cc(C(=O)Nc2ccc(S(=O)(=O)c3ccccc3C(C)(C)C)cc2)c(O)c(O)c1O

system: KP-N-YN; experiment: cells; assay type: functional, cell-based, Homo sapiens; conditions: Homo sapiens, KP-N-YN;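 further: growth inhibition of KP-N-YN cells, read out with a cell viability assay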
Description: SANGER: Inhibition of human KP-N-YN cell growth in a cell viability assay.

Row | IC50 [µM] | Structure (SMILES)
8 | 15.9 | CC(C)c1ccccc1Cc1cc(C(=O)Nc2ccc(S(=O)(=O)c3ccccc3C(C)(C)C)cc2)c(O)c(O)c1O

system: OAW-28; experiment: cells; assay type: functional, cell-based, Homo sapiens; conditions: Homo sapiens, OAW-28;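 further: growth inhibition of OAW-28 cells, read out with a cell viability assay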
Description: SANGER: Inhibition of human OAW-28 cell growth in a cell viability assay.

Row | IC50 [nM] | Structure (SMILES)
9 | 294 | CC(C)c1ccccc1Cc1cc(C(=O)Nc2ccc(S(=O)(=O)c3ccccc3C(C)(C)C)cc2)c(O)c(O)c1O

system: RCM-1; experiment: cells; assay type: functional, cell-based, Homo sapiens; conditions: Homo sapiens, RCM-1;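 further: growth inhibition of the RCM-1 line, determined with a cell viability readout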
Description: SANGER: Inhibition of human RCM-1 cell growth in a cell viability assay.

Row | IC50 [µM] | Structure (SMILES)
10 | 3.39 | CC(C)c1ccccc1Cc1cc(C(=O)Nc2ccc(S(=O)(=O)c3ccccc3C(C)(C)C)cc2)c(O)c(O)c1O

system: NY; experiment: cells; assay type: functional, cell-based, Homo sapiens; conditions: Homo sapiens, NY
Description: SANGER: Inhibition of human NY cell growth in a cell viability assay.

Row | IC50 [nM] | Structure (SMILES)
11 | 178 | CC(C)c1ccccc1Cc1cc(C(=O)Nc2ccc(S(=O)(=O)c3ccccc3C(C)(C)C)cc2)c(O)c(O)c1O

system: RD; experiment: cells; assay type: functional, cell-based, Homo sapiens; conditions: Homo sapiens, RD
Description: SANGER: Inhibition of human RD cell growth in a cell viability assay.

Row | IC50 [nM] | Structure (SMILES)
12 | 960 | CC(C)c1ccccc1Cc1cc(C(=O)Nc2ccc(S(=O)(=O)c3ccccc3C(C)(C)C)cc2)c(O)c(O)c1O

system: NCI-H2030; experiment: cells; assay type: functional, cell-based, Homo sapiens; conditions: Homo sapiens, NCI-H2030;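 further: growth inhibition of human NCI-H2030 cells, read out by a cell viability assay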
Description: SANGER: Inhibition of human NCI-H2030 cell growth in a cell viability assay.

Row | IC50 [nM] | Structure (SMILES)
13 | 2810 | CC(C)c1ccccc1Cc1cc(C(=O)Nc2ccc(S(=O)(=O)c3ccccc3C(C)(C)C)cc2)c(O)c(O)c1O

system: KNS-62; experiment: cells; assay type: functional, cell-based, Homo sapiens; conditions: Homo sapiens, KNS-62;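 further: inhibition of cell growth, read out with a cell viability assay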
Description: SANGER: Inhibition of human KNS-62 cell growth in a cell viability assay.

Row | IC50 [nM] | Structure (SMILES)
14 | 559 | CC(C)c1ccccc1Cc1cc(C(=O)Nc2ccc(S(=O)(=O)c3ccccc3C(C)(C)C)cc2)c(O)c(O)c1O

system: RERF-LC-MS; experiment: cells; assay type: functional, cell-based, Homo sapiens; conditions: Homo sapiens, RERF-LC-MS;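 further: growth inhibition of human RERF-LC-MS cells, read out by a cell viability assay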
Description: SANGER: Inhibition of human RERF-LC-MS cell growth in a cell viability assay.

Row | IC50 [nM] | Structure (SMILES)
15 | 35.2 | CC(C)c1ccccc1Cc1cc(C(=O)Nc2ccc(S(=O)(=O)c3ccccc3C(C)(C)C)cc2)c(O)c(O)c1O

system: HCC1954; experiment: cells; assay type: functional, cell-based, Homo sapiens; conditions: Homo sapiens, HCC1954;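 further: growth inhibition of human HCC1954 cells, read out with a cell viability assay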
Description: SANGER: Inhibition of human HCC1954 cell growth in a cell viability assay.

Row | IC50 [nM] | Structure (SMILES)
16 | 894 | CC(C)c1ccccc1Cc1cc(C(=O)Nc2ccc(S(=O)(=O)c3ccccc3C(C)(C)C)cc2)c(O)c(O)c1O

system: CAKI-1; experiment: cells; assay type: functional, cell-based, Homo sapiens; conditions: Homo sapiens, CAKI-1;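 further: growth inhibition of CAKI-1 cells, measured by a cell viability assay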
Description: SANGER: Inhibition of human CAKI-1 cell growth in a cell viability assay.

Row | IC50 [nM] | Structure (SMILES)
17 | 216 | CC(C)c1ccccc1Cc1cc(C(=O)Nc2ccc(S(=O)(=O)c3ccccc3C(C)(C)C)cc2)c(O)c(O)c1O

system: HOP-92; experiment: cells; assay type: functional, cell-based, Homo sapiens; conditions: Homo sapiens, HOP-92;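 further: cell viability readout, with IC50 reflecting inhibition of HOP-92 cell growth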
Description: SANGER: Inhibition of human HOP-92 cell growth in a cell viability assay.

Row | IC50 [nM] | Structure (SMILES)
18 | 358 | CC(C)c1ccccc1Cc1cc(C(=O)Nc2ccc(S(=O)(=O)c3ccccc3C(C)(C)C)cc2)c(O)c(O)c1O

system: NCI-H460; experiment: cells; assay type: functional, cell-based, Homo sapiens; conditions: Homo sapiens, NCI-H460;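 further: cell viability assay scoring growth inhibition of human NCI-H460 cells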
Description: SANGER: Inhibition of human NCI-H460 cell growth in a cell viability assay.

Row | IC50 [nM] | Structure (SMILES)
19 | 306 | CC(C)c1ccccc1Cc1cc(C(=O)Nc2ccc(S(=O)(=O)c3ccccc3C(C)(C)C)cc2)c(O)c(O)c1O

system: EFO-21; experiment: cells; assay type: functional, cell-based, Homo sapiens; conditions: Homo sapiens, EFO-21;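 further: growth inhibition of EFO-21 cells measured with a viability assay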
Description: SANGER: Inhibition of human EFO-21 cell growth in a cell viability assay.

Row | IC50 [nM] | Structure (SMILES)
20 | 2600 | CC(C)c1ccccc1Cc1cc(C(=O)Nc2ccc(S(=O)(=O)c3ccccc3C(C)(C)C)cc2)c(O)c(O)c1O

system: SW13; experiment: cells; assay type: functional, cell-based, Homo sapiens; conditions: Homo sapiens, SW13;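 further: IC50 is inhibition of SW13 cell growth, read out with a cell viability assay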
Description: SANGER: Inhibition of human SW13 cell growth in a cell viability assay.

Row | IC50 [nM] | Structure (SMILES)
21 | 204 | CC(C)c1ccccc1Cc1cc(C(=O)Nc2ccc(S(=O)(=O)c3ccccc3C(C)(C)C)cc2)c(O)c(O)c1O

system: ZR-75-30; experiment: cells; assay type: functional, cell-based, Homo sapiens; conditions: Homo sapiens, ZR-75-30;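 further: growth inhibition of ZR-75-30 cells, measured with a cell viability readout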
Description: SANGER: Inhibition of human ZR-75-30 cell growth in a cell viability assay.

Row | IC50 [nM] | Structure (SMILES)
22 | 1420 | CC(C)c1ccccc1Cc1cc(C(=O)Nc2ccc(S(=O)(=O)c3ccccc3C(C)(C)C)cc2)c(O)c(O)c1O

system: KYSE-150 cell line; experiment: cells; assay type: functional, cell-based, Homo sapiens; conditions: Homo sapiens, KYSE-150;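 further: growth inhibition of human KYSE-150 cells, read out with a cell viability assay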
Description: SANGER: Inhibition of human KYSE-150 cell growth in a cell viability assay.

Row | IC50 [nM] | Structure (SMILES)
23 | 465 | CC(C)c1ccccc1Cc1cc(C(=O)Nc2ccc(S(=O)(=O)c3ccccc3C(C)(C)C)cc2)c(O)c(O)c1O

system: HMV-2 cell line; experiment: cells; assay type: functional, cell-based, Homo sapiens; conditions: Homo sapiens, HMV-2;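 further: growth inhibition of HMV-II cells, read out with a cell viability assay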
Description: SANGER: Inhibition of human HMV-II cell growth in a cell viability assay.

Row | IC50 [nM] | Structure (SMILES)
24 | 309 | CC(C)c1ccccc1Cc1cc(C(=O)Nc2ccc(S(=O)(=O)c3ccccc3C(C)(C)C)cc2)c(O)c(O)c1O

system: MEL-JUSO; experiment: cells; assay type: functional, cell-based, Homo sapiens; conditions: Homo sapiens, MEL-JUSO;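 further: growth inhibition of human MEL-JUSO cells, read out with a cell viability assay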
Description: SANGER: Inhibition of human MEL-JUSO cell growth in a cell viability assay.

Row | IC50 [nM] | Structure (SMILES)
25 | 439 | CC(C)c1ccccc1Cc1cc(C(=O)Nc2ccc(S(=O)(=O)c3ccccc3C(C)(C)C)cc2)c(O)c(O)c1O

system: SAOS-2; experiment: cells; assay type: functional, cell-based, Homo sapiens; conditions: Homo sapiens, SAOS-2;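 further: growth inhibition of human Saos-2 cells determined by a cell viability assay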
Description: SANGER: Inhibition of human Saos-2 cell growth in a cell viability assay.

Row | IC50 [nM] | Structure (SMILES)
26 | 613 | CC(C)c1ccccc1Cc1cc(C(=O)Nc2ccc(S(=O)(=O)c3ccccc3C(C)(C)C)cc2)c(O)c(O)c1O

system: MKN-7; experiment: cells; assay type: functional, cell-based, Homo sapiens; conditions: Homo sapiens, MKN-7;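 further: growth inhibition of MKN-7 cells, read out with a cell viability assay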
Description: SANGER: Inhibition of human MKN7 cell growth in a cell viability assay.

Row | IC50 [µM] | Structure (SMILES)
27 | 4.47 | CC(C)c1ccccc1Cc1cc(C(=O)Nc2ccc(S(=O)(=O)c3ccccc3C(C)(C)C)cc2)c(O)c(O)c1O

system: NCI-H2405; experiment: cells; assay type: functional, cell-based, Homo sapiens; conditions: Homo sapiens, NCI-H2405;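 further: growth inhibition of the human cell line, read out with a cell viability assay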
Description: SANGER: Inhibition of human NCI-H2405 cell growth in a cell viability assay.

Row | IC50 [nM] | Structure (SMILES)
28 | 675 | CC(C)c1ccccc1Cc1cc(C(=O)Nc2ccc(S(=O)(=O)c3ccccc3C(C)(C)C)cc2)c(O)c(O)c1O

system: ACHN; experiment: cells; assay type: functional, cell-based, Homo sapiens; conditions: Homo sapiens, ACHN;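 further: cell viability read-out used to gauge how strongly growth of human ACHN cells is suppressed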
Description: SANGER: Inhibition of human ACHN cell growth in a cell viability assay.

Row | IC50 [nM] | Structure (SMILES)
29 | 149 | CC(C)c1ccccc1Cc1cc(C(=O)Nc2ccc(S(=O)(=O)c3ccccc3C(C)(C)C)cc2)c(O)c(O)c1O

system: NCI-H1703; experiment: cells; assay type: functional, cell-based, Homo sapiens; conditions: Homo sapiens, NCI-H1703;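 further: growth inhibition of NCI-H1703 cells, read out via a cell viability assay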
Description: SANGER: Inhibition of human NCI-H1703 cell growth in a cell viability assay.

Row | IC50 [nM] | Structure (SMILES)
30 | 217 | CC(C)c1ccccc1Cc1cc(C(=O)Nc2ccc(S(=O)(=O)c3ccccc3C(C)(C)C)cc2)c(O)c(O)c1O

system: Detroit 562; experiment: cells; assay type: functional, cell-based, Homo sapiens; conditions: Homo sapiens, Detroit 562;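 further: growth inhibition of human Detroit 562 cells, read out by a cell viability assay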
Description: SANGER: Inhibition of human Detroit562 cell growth in a cell viability assay.

Row | IC50 [nM] | Structure (SMILES)
31 | 1270 | CC(C)c1ccccc1Cc1cc(C(=O)Nc2ccc(S(=O)(=O)c3ccccc3C(C)(C)C)cc2)c(O)c(O)c1O

system: SCC-9; experiment: cells; assay type: functional, cell-based, Homo sapiens; conditions: Homo sapiens, SCC-9;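 further: Read-out is a cell viability assay, with values giving inhibition of cell growth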
Description: SANGER: Inhibition of human SCC-9 cell growth in a cell viability assay.

Row | IC50 [nM] | Structure (SMILES)
32 | 957 | CC(C)c1ccccc1Cc1cc(C(=O)Nc2ccc(S(=O)(=O)c3ccccc3C(C)(C)C)cc2)c(O)c(O)c1O

system: NCI-H2452; experiment: cells; assay type: functional, cell-based, Homo sapiens; conditions: Homo sapiens, NCI-H2452;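 further: growth inhibition of NCI-H2452 cells, read out with a cell viability assay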
Description: SANGER: Inhibition of human NCI-H2452 cell growth in a cell viability assay.

Row | IC50 [nM] | Structure (SMILES)
33 | 754 | CC(C)c1ccccc1Cc1cc(C(=O)Nc2ccc(S(=O)(=O)c3ccccc3C(C)(C)C)cc2)c(O)c(O)c1O

system: HT1197; experiment: cells; assay type: functional, cell-based, Homo sapiens, HT-1197; conditions: Homo sapiens, HT1197
Description: SANGER: Inhibition of human HT-1197 cell growth in a cell viability assay.

Row | IC50 [µM] | Structure (SMILES)
34 | 5.95 | CC(C)c1ccccc1Cc1cc(C(=O)Nc2ccc(S(=O)(=O)c3ccccc3C(C)(C)C)cc2)c(O)c(O)c1O

system: C3A; experiment: cells; assay type: functional, cell-based, Homo sapiens; conditions: Homo sapiens, C3A;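 further: growth inhibition of C3A human cells, quantified with a cell viability readout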
Description: SANGER: Inhibition of human C3A cell growth in a cell viability assay.

Row | IC50 [nM] | Structure (SMILES)
35 | 1820 | CC(C)c1ccccc1Cc1cc(C(=O)Nc2ccc(S(=O)(=O)c3ccccc3C(C)(C)C)cc2)c(O)c(O)c1O

system: NCI-H727; experiment: cells; assay type: functional, cell-based, Homo sapiens; conditions: Homo sapiens, NCI-H727;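 further: growth inhibition of human NCI-H727 cells, read out with a cell viability assay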
Description: SANGER: Inhibition of human NCI-H727 cell growth in a cell viability assay.

Row | IC50 [nM] | Structure (SMILES)
36 | 941 | CC(C)c1ccccc1Cc1cc(C(=O)Nc2ccc(S(=O)(=O)c3ccccc3C(C)(C)C)cc2)c(O)c(O)c1O
